According to patent US7879881B2, “Piperidinyl compounds that selectively bind integrins” (Janssen Pharmaceutica NV, priority 2002, dated 2011):
Where two headings read alike, the source gives them in different places. Values belong to the compound of their own block, whether it stands above or below them.

Experiments:
Human αvβ3 = target: T1, Human αvβ3 (Homo sapiens, UniProt P05106+P06756); assay: In Vitro Solid Phase Purified αvβ3 Binding Assay (vitronectin/αvβ3); conditions: vitronectin binding to immobilized purified human αvβ3; mean ± spread; read-out: αvβ3IC50
T1 construct: purchased Chemicon International Inc., Temecula, Calif
T1 sequence (P06756 31-889 limits assumed): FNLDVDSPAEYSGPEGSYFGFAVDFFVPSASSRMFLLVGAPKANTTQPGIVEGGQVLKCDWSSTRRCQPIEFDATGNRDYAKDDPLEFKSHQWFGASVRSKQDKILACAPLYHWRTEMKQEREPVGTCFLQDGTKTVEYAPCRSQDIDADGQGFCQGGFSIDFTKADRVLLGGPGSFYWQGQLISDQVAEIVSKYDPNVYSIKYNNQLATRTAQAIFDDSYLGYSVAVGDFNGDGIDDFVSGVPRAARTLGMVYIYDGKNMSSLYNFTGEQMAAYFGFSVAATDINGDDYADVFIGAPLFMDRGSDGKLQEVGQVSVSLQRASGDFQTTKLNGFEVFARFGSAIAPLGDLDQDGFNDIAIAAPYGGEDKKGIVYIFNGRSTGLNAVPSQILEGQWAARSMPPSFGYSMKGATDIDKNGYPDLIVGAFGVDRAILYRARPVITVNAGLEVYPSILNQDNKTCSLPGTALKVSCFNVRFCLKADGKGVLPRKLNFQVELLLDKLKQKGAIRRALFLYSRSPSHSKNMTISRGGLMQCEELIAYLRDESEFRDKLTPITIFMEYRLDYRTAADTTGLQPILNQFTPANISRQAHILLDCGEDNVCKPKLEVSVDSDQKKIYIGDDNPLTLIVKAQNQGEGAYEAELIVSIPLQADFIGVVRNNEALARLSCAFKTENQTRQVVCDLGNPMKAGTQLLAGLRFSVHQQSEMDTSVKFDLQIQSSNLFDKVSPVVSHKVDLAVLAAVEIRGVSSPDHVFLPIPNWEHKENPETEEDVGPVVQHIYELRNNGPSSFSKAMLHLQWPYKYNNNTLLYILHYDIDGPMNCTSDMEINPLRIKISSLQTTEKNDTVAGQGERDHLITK
T1 sequence (P06756 891-1048 partner limits assumed): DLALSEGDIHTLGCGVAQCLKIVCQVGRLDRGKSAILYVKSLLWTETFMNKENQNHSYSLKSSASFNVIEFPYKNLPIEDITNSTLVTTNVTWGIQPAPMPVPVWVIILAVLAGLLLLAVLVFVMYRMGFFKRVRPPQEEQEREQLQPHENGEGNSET
T1 sequence (P05106 27-788): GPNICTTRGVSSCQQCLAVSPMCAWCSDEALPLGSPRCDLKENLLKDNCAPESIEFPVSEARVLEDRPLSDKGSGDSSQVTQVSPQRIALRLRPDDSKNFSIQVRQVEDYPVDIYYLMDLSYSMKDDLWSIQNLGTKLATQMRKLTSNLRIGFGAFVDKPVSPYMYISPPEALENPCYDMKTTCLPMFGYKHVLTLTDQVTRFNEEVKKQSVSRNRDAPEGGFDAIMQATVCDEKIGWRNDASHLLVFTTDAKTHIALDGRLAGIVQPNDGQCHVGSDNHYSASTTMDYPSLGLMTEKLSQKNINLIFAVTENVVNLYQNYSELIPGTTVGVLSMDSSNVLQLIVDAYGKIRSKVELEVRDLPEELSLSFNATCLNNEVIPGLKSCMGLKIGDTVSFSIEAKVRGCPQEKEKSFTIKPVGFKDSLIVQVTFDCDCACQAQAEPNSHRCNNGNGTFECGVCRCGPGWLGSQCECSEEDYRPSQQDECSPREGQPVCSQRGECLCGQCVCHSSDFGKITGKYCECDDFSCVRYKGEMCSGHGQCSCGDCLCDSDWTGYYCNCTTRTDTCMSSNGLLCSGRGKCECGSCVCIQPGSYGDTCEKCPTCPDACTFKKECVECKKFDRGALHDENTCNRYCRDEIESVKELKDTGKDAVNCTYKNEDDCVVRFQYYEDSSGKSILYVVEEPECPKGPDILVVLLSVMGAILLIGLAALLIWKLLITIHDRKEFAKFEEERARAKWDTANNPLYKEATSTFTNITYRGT
Experimental: In Vitro Solid Phase Purified αvβ3 Binding Assay
(§1) Human αvβ3 (Chemicon International Inc., Temecula, Calif.), at a concentration of 1 μg/ml dissolved in Tris buffer (20 mM Tris, 1 mM CaCl2, 1 mM MgCl2, 10 μM MnCl2, 150 mM NaCl), was immobilized on Immulon 96 well plates (Dynex Technologies, Chantilly, Va.) overnight at 4° C. Plates were washed and treated with blocking buffer (3% BSA in Tris buffer) for 2 h at 37° C. Plates were then rinsed 2 times with assay buffer comprised of Tris buffer. Synthesized compounds were added to wells in duplicate immediately prior to the addition of 2 nM vitronectin (Sigma, St. Louis, Mo.). Following a 3 hour incubation at 37° C., plates were washed 5 times in assay buffer. An anti-human vitronectin IgG rabbit polyclonal antibody (Calbiochem, San Diego, Calif.) was added (1:2000) and plates were incubated for 1 hour at room temperature. VectaStain ABC peroxidase kit reagents (Vector Laboratories, Burlingame, Calif.) employing a biotin labeled anti-rabbit IgG, were utilized for detection of bound antibody. Plates were read at 490 nm on a Molecular Devices (Sunnyvale, Calif.) microplate reader.

GP IIb/IIIa = GP IIb/IIIa (Homo sapiens, UniProt P05106+P08514); assay: In Vitro Solid Phase Purified GP IIb/IIIa Binding Assay (biotinylated fibrinogen); conditions: biotinylated fibrinogen binding to immobilized purified GP IIb/IIIa, mean ± spread
GP IIb/IIIa, sequence (P08514 32-887 limits assumed): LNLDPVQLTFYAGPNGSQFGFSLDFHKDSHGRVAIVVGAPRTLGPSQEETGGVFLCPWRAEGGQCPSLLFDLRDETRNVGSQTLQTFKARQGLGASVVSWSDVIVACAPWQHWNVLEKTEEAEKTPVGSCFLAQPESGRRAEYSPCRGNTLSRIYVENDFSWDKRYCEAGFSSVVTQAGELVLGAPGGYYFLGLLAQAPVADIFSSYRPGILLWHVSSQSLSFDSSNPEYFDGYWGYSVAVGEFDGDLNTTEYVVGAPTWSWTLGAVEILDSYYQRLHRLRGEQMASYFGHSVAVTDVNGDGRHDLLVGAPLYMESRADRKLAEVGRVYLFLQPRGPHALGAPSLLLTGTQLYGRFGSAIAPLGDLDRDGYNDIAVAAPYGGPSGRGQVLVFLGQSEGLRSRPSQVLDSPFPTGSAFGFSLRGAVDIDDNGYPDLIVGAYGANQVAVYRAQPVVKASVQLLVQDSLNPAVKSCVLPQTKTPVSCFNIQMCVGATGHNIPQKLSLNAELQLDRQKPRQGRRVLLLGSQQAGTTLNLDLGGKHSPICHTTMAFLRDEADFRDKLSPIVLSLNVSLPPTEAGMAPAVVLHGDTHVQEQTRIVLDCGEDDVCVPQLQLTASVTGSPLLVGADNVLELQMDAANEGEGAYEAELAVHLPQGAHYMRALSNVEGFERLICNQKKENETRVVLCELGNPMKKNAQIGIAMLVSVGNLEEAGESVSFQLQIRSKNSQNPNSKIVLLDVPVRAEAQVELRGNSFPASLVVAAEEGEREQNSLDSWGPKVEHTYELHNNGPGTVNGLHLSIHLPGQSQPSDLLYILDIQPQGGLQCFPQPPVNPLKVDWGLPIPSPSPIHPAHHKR
GP IIb/IIIa, sequence (P08514 891-1039 partner limits assumed): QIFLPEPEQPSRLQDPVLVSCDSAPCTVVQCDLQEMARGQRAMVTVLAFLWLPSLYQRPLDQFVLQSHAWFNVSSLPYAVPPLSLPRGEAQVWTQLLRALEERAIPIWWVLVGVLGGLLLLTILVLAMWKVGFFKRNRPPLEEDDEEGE
GP IIb/IIIa, sequence (P05106 27-788): as the sequence (P05106 27-788) above
Experimental: In Vitro Solid Phase Purified GP IIb/IIIa Binding Assay
The plate was covered and incubated overnight at 4° C. The GP IIb/IIIa solution was discarded and 150 μL of 5% BSA was added and incubated at RT for 1-3 h. The plate was washed extensively with modified Tyrodes buffer. Biotinylated fibrinogen (25 μL/well) at 2× final concentration was added to the wells that contain the test compounds (25 μL/well). The plate was covered and incubated at RT for 2-4 h. Twenty minutes prior to incubation completion, one drop of Reagent A (VectaStain ABC Horseradish Peroxidase kit, Vector Laboratories, Inc.) and one drop Reagent B were added with mixing to 5 mL modified Tyrodes buffer mix and let stand. The ligand solution was discarded and the plate washed (5×200 μL/well) with modified Tyrodes buffer. […] The Vecta Stain solution was discarded and the wells washed (5×200 μL/well) with modified Tyrodes buffer. Developing buffer (10 mL of 50 mM citrate/phosphate buffer @ pH 5.3, 6 mg o-phenylenediamine, 6 μL 30% H2O2; 50 μL/well) was added and incubated at RT for 3-5 min and then 2 N H2SO4 (50 μL/well) was added.

human purified αVβ5 = target: T2, human purified αVβ5 (Homo sapiens, UniProt P06756+P18084); assay: In Vitro Solid Phase Purified αcβ5 Binding Assay (vitronectin/αVβ5); conditions: vitronectin binding to immobilized purified human αVβ5; mean ± spread; read-out: αvβ5 IC50
T2 construct: purchased Chemicon International, Inc
T2 sequence (P06756 31-889 limits assumed): as the sequence (P06756 31-889 limits assumed) above
T2 sequence (P06756 891-1048 partner limits assumed): as the sequence (P06756 891-1048 partner limits assumed) above
T2 sequence (P18084 24-799): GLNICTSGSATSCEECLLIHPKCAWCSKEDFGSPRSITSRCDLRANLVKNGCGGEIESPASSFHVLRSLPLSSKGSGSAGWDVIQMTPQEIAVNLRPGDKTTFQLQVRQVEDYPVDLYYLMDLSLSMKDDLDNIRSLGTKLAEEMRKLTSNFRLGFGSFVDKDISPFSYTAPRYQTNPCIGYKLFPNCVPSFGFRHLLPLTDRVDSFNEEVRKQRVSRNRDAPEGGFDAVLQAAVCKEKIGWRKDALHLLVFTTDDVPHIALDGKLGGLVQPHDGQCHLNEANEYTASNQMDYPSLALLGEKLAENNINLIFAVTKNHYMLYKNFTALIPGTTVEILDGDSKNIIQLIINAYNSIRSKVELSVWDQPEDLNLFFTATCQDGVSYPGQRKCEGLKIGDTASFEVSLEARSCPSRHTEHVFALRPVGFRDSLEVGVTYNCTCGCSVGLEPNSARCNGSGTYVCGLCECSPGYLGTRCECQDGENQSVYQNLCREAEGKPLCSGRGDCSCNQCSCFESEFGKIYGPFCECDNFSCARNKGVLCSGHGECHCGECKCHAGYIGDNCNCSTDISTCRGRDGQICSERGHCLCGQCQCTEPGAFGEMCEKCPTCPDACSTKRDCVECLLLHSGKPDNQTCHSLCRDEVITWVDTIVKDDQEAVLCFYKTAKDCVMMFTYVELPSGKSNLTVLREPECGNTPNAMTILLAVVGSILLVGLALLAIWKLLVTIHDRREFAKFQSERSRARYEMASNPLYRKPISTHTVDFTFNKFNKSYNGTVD
Experimental: as §1
In Vitro Solid Phase Purified αcβ5 Binding Assay
All other aspects of the assay including buffers, reagents and incubation times remain unchanged.

Compound: O=C(O)CC(CC1CCN(C(=O)CCc2ccc3c(n2)NCCC3)CC1)c1ccc2c(c1)OCC2 (single isomer, unassigned) [Cpd 36b, 3-(2,3-Dihydro-benzofuran-6-yl)-4-[1-(3-5,6,7,8-tetrahydro-[1,8]naphthyridin-2-yl-propionyl)-piperidin-4-yl]-butyric acid]
- IC50 (Human αvβ3): 84 nM
- IC50 (GP IIb/IIIa; read-out: αIIbβ3 IC50): > 50 µM
- IC50 (human purified αVβ5): 129 nM

Compound: O=C(O)CC(CC1CCN(C(=O)CCCc2ccc3c(n2)NCCC3)CC1)c1ccc(F)cc1 (stereo not drawn) [Cpd 34, β-(4-fluorophenyl)-1-[1-oxo-4-(5,6,7,8-tetrahydro-1,8-naphthyridin-2-yl)butyl]-4-piperidinebutanoic acid]
- IC50 (Human αvβ3): 148 ± 100 nM
- IC50 (GP IIb/IIIa; read-out: αIIbβ3 IC50): > 50 µM
- IC50 (human purified αVβ5): 1040 ± 109 nM

Compound: O=C(O)CC(c1ccc2c(c1)OCO2)C1CCN(C(=O)CCc2ccc3c(n2)NCCC3)CC1 (stereo not drawn) [Cpd 14, β-(1,3-benzodioxol-5-yl)-1-[1-oxo-3-(5,6,7,8-tetrahydro-1,8-naphthyridin-2-yl)propyl]-4-piperidinepropanoic acid]
- IC50 (Human αvβ3): 36.1 ± 0.1 nM
- IC50 (GP IIb/IIIa; read-out: αIIbβ3 IC50): 5.04 µM
- IC50 (human purified αVβ5): 108 ± 34 nM

Compound: O=C(O)CC(CC1CCN(C(=O)c2cccc(NC3=NCC(O)CN3)c2)CC1)c1ccc2c(c1)OCO2 (stereo not drawn) [Cpd 27, β-(1,3-benzodioxol-5-yl)-1-[3-[(1,4,5,6-tetrahydro-5-hydroxy-2-pyrimidinyl)amino]benzoyl]-4-piperidinebutanoic acid]
- IC50 (Human αvβ3): 48 nM
- IC50 (GP IIb/IIIa; read-out: αIIbβ3 IC50): 1.62 ± 0.56 µM
- IC50 (human purified αVβ5): 810 nM

Compound: O=C(O)CC(CC1CCN(C(=O)CCc2ccc3c(n2)NCCC3)CC1)C1CCOC1 (racemic) [Cpd 62]
- IC50 (Human αvβ3): 90 ± 2 nM
- IC50 (GP IIb/IIIa; read-out: αIIbβ3 IC50): > 50 µM
- IC50 (human purified αVβ5): 170 ± 81 nM

Compound: O=C(O)CC(c1ccc2c(c1)OCO2)C1CCN(C(=O)CCCNc2ccccn2)CC1 (stereo not drawn) [Cpd 24, β-(1,3-benzodioxol-5-yl)-1-[1-oxo-4-(2-pyridinylamino)butyl]-4-piperidinepropanoic acid]
- IC50 (Human αvβ3): 307 nM
- IC50 (GP IIb/IIIa; read-out: αIIbβ3 IC50): 19.3 µM
- IC50 (human purified αVβ5): 387 nM

Compound: NC(=O)CC(CC1CCN(C(=O)CCc2ccc3c(n2)NCCC3)CC1)c1cccc(F)c1 (racemic) [Cpd 64, 3-(3-Fluoro-phenyl)-4-[1-(3-5,6,7,8-tetrahydro-[1,8]naphthyridin-2-yl-propionyl)-piperidin-4-yl]-butyramide]
- IC50 (Human αvβ3): 61.5 ± 5.5 nM
- IC50 (GP IIb/IIIa; read-out: αIIbβ3 IC50): > 50 µM
- IC50 (human purified αVβ5): 147 ± 84.7 nM

Compound: COc1ccc(C(CC(=O)O)CC2CCN(C(=O)CCc3ccc4c(n3)NCCC4)CC2)cn1 (single isomer, unassigned) [Cpd 28a, 6-methoxy-β-[[1-[1-oxo-3-(5,6,7,8-tetrahydro-1,8-naphthyridin-2-yl)propyl]-4-piperidinyl]methyl]-3-pyridinepropanoic acid]
- IC50 (Human αvβ3): 0.3 ± 0.2 nM
- IC50 (GP IIb/IIIa; αIIbβ3 IC50 (uM)): 1.83 ± 0.57 µM
- IC50 (human purified αVβ5): 4.2 ± 1.8 nM

Compound: O=C(O)CC(CC1CCN(C(=O)CCCc2ccc3c(n2)NCCC3)CC1)c1cc(F)cc(F)c1 (stereo not drawn) [Cpd 38, β-(3,5-difluorophenyl)-1-[1-oxo-4-(5,6,7,8-tetrahydro-1,8-naphthyridin-2-yl)butyl]-4-piperidinebutanoic acid]
- IC50 (Human αvβ3): 484 nM
- IC50 (GP IIb/IIIa; read-out: αIIbβ3 IC50): > 50 µM
- IC50 (human purified αVβ5): 2110 nM

Compound: CC(C)OC(=O)CCCC1CCN(C(=O)CCc2ccc3c(n2)NCCC3)CC1 [Cpd 69, 4-[1-(3-5,6,7,8-Tetrahydro-[1,8]naphthyridin-2-yl-propionyl)-piperidin-4-yl]-butyric acid isopropyl ester]
- IC50 (Human αvβ3): > 500 nM
- IC50 (GP IIb/IIIa; read-out: αIIbβ3 IC50): > 50 µM
- IC50 (human purified αVβ5): > 1000 nM

Further compounds by falling IC50 (Human αvβ3), results first:

- IC50 (Human αvβ3): 29.8 ± 13.7 nM
- IC50 (GP IIb/IIIa; read-out: αIIbβ3 IC50): 0.94 ± 0.05 µM
- IC50 (human purified αVβ5): 138 ± 41.5 nM
Compound: O=C(O)CC(CCC1CCN(C(=O)c2cccc(NC3=NCCCC3)c2)CC1)c1ccc2c(c1)OCO2 (stereo not drawn) [Cpd 53, β-(1,3-benzodioxol-5-yl)-1-[3-[(3,4,5,6-tetrahydro-2-pyridinyl)amino]benzoyl]-4-piperidinepentanoic acid]

- IC50 (Human αvβ3): 27.7 ± 5.3 nM
- IC50 (GP IIb/IIIa; read-out: αIIbβ3 IC50): 5.92 µM
- IC50 (human purified αVβ5): 500 nM
Compound: O=C(O)CC(CC1CCN(C(=O)CCCc2ccc3c(n2)NCCC3)CC1)c1ccc2c(c1)OCO2 (stereo not drawn) [Cpd 26, β-(1,3-benzodioxol-5-yl)-1-[1-oxo-4-(5,6,7,8-tetrahydro-1,8-naphthyridin-2-yl)butyl]-4-piperidinebutanoic acid]

- IC50 (Human αvβ3): 21.3 ± 1.9 nM
- IC50 (GP IIb/IIIa; read-out: αIIbβ3 IC50): 5.31 µM
- IC50 (human purified αVβ5): 841 ± 405 nM
Compound: COc1ccc(C(CCC2CCN(C(=O)CCc3ccc4c(n3)NCCC4)CC2)CC(=O)O)cn1 (single isomer, unassigned) [Cpd 21a, 6-methoxy-β-[2-[1-[1-oxo-3-(5,6,7,8-tetrahydro-1,8-naphthyridin-2-yl)propyl]-4-piperidinyl]ethyl]-3-pyridinepropanoic acid]

- IC50 (Human αvβ3): 17.9 ± 3.4 nM
- IC50 (GP IIb/IIIa; read-out: αIIbβ3 IC50): 1.36 ± 0.43 µM
- IC50 (human purified αVβ5): 253 nM
Compound: O=C(O)CC(CCC1CCN(C(=O)CCc2ccc3c(n2)NCCC3)CC1)c1cccnc1 (stereo not drawn) [Cpd 8, β-[2-[1-[1-Oxo-3-(5,6,7,8-tetrahydro-1,8-naphthyridin-2-yl)propyl]-4-piperidinyl]ethyl]-3-pyridinepropanoic acid]

- IC50 (Human αvβ3): 6.7 ± 0.2 nM
- IC50 (GP IIb/IIIa; read-out: αIIbβ3 IC50): 22.7 µM
- IC50 (human purified αVβ5): 10.1 ± 1.7 nM
Compound: O=C(O)CC(CC1CCN(CCCc2ccc3c(n2)NCCC3)CC1)c1cccc(F)c1 (racemic) [Cpd 81, 3-(3-Fluoro-phenyl)-4-[1-(3-5,6,7,8-tetrahydro-[1,8]naphthyridin-2-yl-propyl]-piperidin-4-yl]-butyric acid]

- IC50 (Human αvβ3): 6.4 ± 1.4 nM
- IC50 (GP IIb/IIIa; read-out: αIIbβ3 IC50): 0.57 ± 0.04 µM
- IC50 (human purified αVβ5): > 50000 nM
Compound: β-[2-[1-[1-oxo-3-(5,6,7,8-tetrahydro-1,8-naphthyridin-2-yl)propyl]-4-piperidinyl]ethyl]-3-quinolinepropanoic acid [Cpd 52]

- IC50 (Human αvβ3): 3.5 ± 1.5 nM
- IC50 (GP IIb/IIIa; read-out: αIIbβ3 IC50): 40.2 µM
- IC50 (human purified αVβ5): 25 ± 6 nM
Compound: CNc1cccc(C(CC(=O)O)CC2CCN(C(=O)CCc3ccc4c(n3)NCCC4)CC2)c1 (racemic) [Cpd 79, 3-(3-Methylamino-phenyl)-4-[1-(3-5,6,7,8-tetrahydro-[1,8]naphthyridin-2-yl-propionyl)-piperidin-4-yl]-butyric acid]

- IC50 (Human αvβ3): 3.2 ± 0.6 nM
- IC50 (GP IIb/IIIa; read-out: αIIbβ3 IC50): 11.1 ± 3.4 µM
- IC50 (human purified αVβ5): 36 ± 13.3 nM
Compound: O=C(O)CC(CC1CCN(C(=O)CCc2ccc3c(n2)NCCC3)CC1)c1ccccc1 (stereo not drawn) [Cpd 13, 1-[1-oxo-3-(5,6,7,8-tetrahydro-1,8-naphthyridin-2-yl)propyl]-β-phenyl-4-piperidinebutanoic acid]

- IC50 (Human αvβ3): 2.2 ± 0.9 nM
- IC50 (GP IIb/IIIa; read-out: αIIbβ3 IC50): 5.44 ± 1.1 µM
- IC50 (human purified αVβ5): 2 ± 0.6 nM
Compound: O=C(O)CC(CC1CCN(C(=O)CCc2ccc3c(n2)NCCC3)CC1)c1cncc2ccccc12 (stereo not drawn) [Cpd 44, β-[[1-[1-oxo-3-(5,6,7,8-tetrahydro-1,8-naphthyridin-2-yl)propyl]-4-piperidinyl]methyl]-4-isoquinolinepropanoic acid]

- IC50 (Human αvβ3): 1.9 ± 0.2 nM
- IC50 (GP IIb/IIIa; read-out: αIIbβ3 IC50): 4.03 ± 0.43 µM
- IC50 (human purified αVβ5): 33.4 ± 6.3 nM
Compound: O=C(O)CC(c1ccc2c(c1)OCO2)C1CCN(C(=O)CCCc2ccc3c(n2)NCCC3)CC1 (stereo not drawn) [Cpd 15, β-(1,3-benzodioxol-5-yl)-1-[1-oxo-4-(5,6,7,8-tetrahydro-1,8-naphthyridin-2-yl)butyl]-4-piperidinepropanoic acid]

- IC50 (Human αvβ3): 1.4 ± 0.7 nM
- IC50 (GP IIb/IIIa; read-out: αIIbβ3 IC50): 1.47 ± 0.37 µM
- IC50 (human purified αVβ5): 4.6 ± 1.7 nM
Compound: COc1ncc(C(CC(=O)O)CC2CCN(C(=O)CCc3ccc4c(n3)NCCC4)CC2)c(OC)n1 (stereo not drawn) [Cpd 47, 2,4-dimethoxy-β-[[1-[1-oxo-3-(5,6,7,8-tetrahydro-1,8-naphthyridin-2-yl)propyl]-4-piperidinyl]methyl]-5-pyrimidinepropanoic acid]

- IC50 (Human αvβ3): 1 ± 0.8 nM
- IC50 (GP IIb/IIIa; read-out: αIIbβ3 IC50): 4.53 ± 2.47 µM
- IC50 (human purified αVβ5): 30.9 ± 0.6 nM
Compound: COc1ccc(C(CC(=O)O)CC2CCN(C(=O)CCc3ccc4c(n3)NCCC4)CC2)cc1 (racemic) [Cpd 60]

- IC50 (Human αvβ3): 0.8 nM
- IC50 (GP IIb/IIIa; read-out: αIIbβ3 IC50): 3.84 µM
- IC50 (human purified αVβ5): 34.6 ± 0.2 nM
Compound: O=C(O)CC(CC1CCN(C(=O)CCc2ccc3c(n2)NCCC3)CC1)c1ccc2c(c1)OCCO2 (racemic) [Cpd 65]

- IC50 (Human αvβ3): 0.7 ± 0.3 nM
- IC50 (GP IIb/IIIa; read-out: αIIbβ3 IC50): 5 ± 0.74 µM
- IC50 (human purified αVβ5): 18.9 ± 4.6 nM
Compound: COc1ccc(C(CC(=O)O)CC2CCN(C(=O)CCc3ccc4c(n3)NCCC4)CC2)cc1F (stereo not drawn) [Cpd 42, β-(3-fluoro-4-methoxyphenyl)-1-[1-oxo-3-(5,6,7,8-tetrahydro-1,8-naphthyridin-2-yl)propyl]-4-piperidinebutanoic acid]
